According to ChEMBL document CHEMBL1147843, “Synthesis of a novel C2-aryl pyrrolo[2,1-c][1,4]benzodiazepine-5,11-dione library: effect of C2-aryl substitution on cytotoxicity and non-covalent DNA binding” (2007):

Tests used:
[1] = system: DNA; test: Binding affinity to calf thymus DNA at 20 uM after 18 hrs by thermal denaturation assay; format: nucleic-acid assay; details: Bos taurus
[2] = system: SF-268; test: Cytotoxicity against human SF268 cells assessed as cell growth at 50 uM after 48 hrs by Alamar Blue assay relative to control; format: functional; details: SF-268, 48 h, read-out: Activity
[3] = system: MCF7; test: Cytotoxicity against human MCF7 cells assessed as cell growth at 50 uM after 48 hrs by Alamar Blue assay relative to control; format: functional; details: MCF7, 48 h, read-out: Activity
[4] = system: NCI-H460; test: Cytotoxicity against human NCI-H460 cells assessed as cell growth at 50 uM after 48 hrs by Alamar Blue assay relative to control; format: functional; details: NCI-H460, 48 h, read-out: Activity
[5] = system: A498; test: Growth inhibition of human A498 cells after 48 hrs by sulforhodamine B assay relative to control; format: functional; details: A498, 48 h
[6] = system: DNA; test: Binding affinity to calf thymus DNA at 20 uM after 4 hrs by thermal denaturation assay; format: nucleic-acid assay; details: Bos taurus
[7] = system: NCI; test: Growth inhibition of human NCI 60 cells after 48 hrs by sulforhodamine B assay relative to control; format: functional
[8] = system: DNA; test: Binding affinity to calf thymus DNA at 20 uM after 72 hrs by thermal denaturation assay; format: nucleic-acid assay; details: Bos taurus

SMILES | ΔTm [1] | ΔTm [6] | ΔTm [8] | growth at 50 µM [2] | growth at 50 µM [3] | growth at 50 µM [4] | GI50 [5] | GI50 [7]
Cc1ccc2c(c1O)NC(O)C1CC(/C=C/C(N)=O)=CN1C2=O (stereo not drawn) [ANTHRAMYCIN] |  |  |  |  |  |  | 0.195 µM | 0.029 µM
O=Cc1ccc(C2=CN3C(=O)c4ccccc4NC(=O)[C@@H]3C2)cc1 | 1.4 °C | 1.5 °C | 1.5 °C |  |  |  |  | 
O=C1Nc2ccccc2C(=O)N2C=C(c3cccc4ccccc34)C[C@@H]12 | 2.3 °C | 2.3 °C | 2.4 °C | 73% | 42% | 29% | 3.16 µM | 14.8 µM

More lines, main results first:

ΔTm [1] | ΔTm [6] | ΔTm [8] | SMILES | growth at 50 µM [2] | growth at 50 µM [3] | growth at 50 µM [4] | GI50 [5] | GI50 [7]
2.2 °C | 2.1 °C | 2.2 °C | O=C1Nc2ccccc2C(=O)N2C=C(c3ccc(Cl)c(Cl)c3)C[C@@H]12 | 86% | 51% | 5% | > 50 µM | 46.8 µM
1.5 °C | 1.5 °C | 1.6 °C | O=C1Nc2ccccc2C(=O)N2C=C(c3ccccc3)C[C@@H]12 |  |  |  |  | 
2 °C | 2 °C | 2.1 °C | O=C1Nc2ccccc2C(=O)N2C=C(c3ccc(Br)cc3)C[C@@H]12 | 109% | 61% | 20% | 0.51 µM | 7.41 µM
1 °C | 0.9 °C | 1 °C | O=C1Nc2ccccc2C(=O)N2C=C(c3cccc([N+](=O)[O-])c3)C[C@@H]12 |  |  |  |  | 
1.1 °C | 1.1 °C | 1.1 °C | Nc1ccc(C2=CN3C(=O)c4ccccc4NC(=O)[C@@H]3C2)cc1 |  |  |  |  | 
